We go through 33 molecules from patent US20070249670A1, “Glycogen Phosphorylase Inhibitor Compounds and Pharmaceutical Compositions Thereof” (SMITHKLINE BEECHAM CORPORATION, priority 2004, published 2007).

Structures can show the parent of a compound that is named as a salt.

In the test the target is T1, human liver glycogen phosphorylase a (HLGPa) (Homo sapiens, UniProt P06737).
T1 construct: creating a full-length cDNA fused at the 5′ end to codons for methionine-glycine-alanine-histidine; 6xHis tag (leader Met-Gly-Ala-His6-Gly-Gly) (N); made in house; host or cells: E. coli (bacterial expression plasmid pTXK1007LTev)
T1 sequence (P06737 2-847 limits assumed): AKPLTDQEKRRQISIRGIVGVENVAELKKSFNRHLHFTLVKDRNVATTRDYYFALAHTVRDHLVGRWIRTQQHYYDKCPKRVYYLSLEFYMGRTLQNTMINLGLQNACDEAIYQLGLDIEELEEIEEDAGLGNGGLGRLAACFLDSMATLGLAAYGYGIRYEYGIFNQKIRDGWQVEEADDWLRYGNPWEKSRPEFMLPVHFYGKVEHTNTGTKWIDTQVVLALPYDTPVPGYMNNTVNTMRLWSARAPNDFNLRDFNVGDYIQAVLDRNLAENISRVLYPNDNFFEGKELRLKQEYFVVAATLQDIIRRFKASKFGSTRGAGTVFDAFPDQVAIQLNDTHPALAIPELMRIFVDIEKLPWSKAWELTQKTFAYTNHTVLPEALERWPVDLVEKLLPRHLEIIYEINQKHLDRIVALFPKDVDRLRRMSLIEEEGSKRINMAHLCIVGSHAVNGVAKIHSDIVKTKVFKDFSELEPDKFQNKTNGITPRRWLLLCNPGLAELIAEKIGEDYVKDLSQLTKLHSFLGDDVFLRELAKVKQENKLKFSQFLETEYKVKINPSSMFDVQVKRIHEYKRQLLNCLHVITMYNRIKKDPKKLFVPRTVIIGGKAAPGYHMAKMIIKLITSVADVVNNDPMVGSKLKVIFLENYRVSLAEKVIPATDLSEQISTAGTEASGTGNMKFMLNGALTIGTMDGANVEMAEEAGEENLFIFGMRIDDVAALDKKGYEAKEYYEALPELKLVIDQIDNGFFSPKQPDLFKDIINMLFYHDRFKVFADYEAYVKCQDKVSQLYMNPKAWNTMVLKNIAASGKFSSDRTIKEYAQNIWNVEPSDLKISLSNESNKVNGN
Nature of the test: Human liver glycogen phosphorylase a enzymatic activity assay (coupled, fluorescent resorufin readout, with and without 10 mM glucose). In kind it is biochemical. The following applies: human liver glycogen phosphorylase a enzymatic activity assay.

One may read the IC50 as the concentration at which inhibition is half-maximal. Lower therefore signals greater potency in that assay.

Consider `Cc1cccc(C)c1NC(=O)Nc1cc2ccccc2cc1C(=O)N[C@@H](CCC(N)=O)C(=O)O` [Example 26, N-[3-({[(2,6-dimethylphenyl)amino]carbonyl}amino)-2-naphthoyl]-L-glutamine], for which the concentration for half-maximal inhibition (IC50) is 3.01 µM.
`C[C@H](NC(=O)c1cc2ccccc2cc1NC(=O)Nc1ccccc1Cl)C(=O)O` [Example 27, N-[3-({[(2-chlorophenyl)amino]carbonyl}amino)-2-naphthoyl]-L-alanine] displayed a half-maximal inhibitory concentration (IC50) of 13.5 µM.
Next, `O=C(Nc1ccccc1Cl)Nc1cc2ccccc2cc1C(=O)N[C@@H](CO)C(=O)O` [Example 28, N-[3-({[(2-chlorophenyl)amino]carbonyl}amino)-2-naphthoyl]-L-serine]: 24.1 µM.
Molecule `C[C@@H](O)[C@H](NC(=O)c1cc2ccccc2cc1NC(=O)Nc1ccccc1Cl)C(=O)O` [Example 29, N-[3-({[(2-chlorophenyl)amino]carbonyl}amino)-2-naphthoyl]-L-threonine] gave a half-inhibitory concentration (IC50) of 7.26 µM.
Molecule `CC[C@H](C)[C@H](NC(=O)c1cc2ccccc2cc1NC(=O)Nc1ccccc1Cl)C(=O)O` [Example 30, N-[3-({[(2-chlorophenyl)amino]carbonyl}amino)-2-naphthoyl]-L-isoleucine] gave a half-inhibitory concentration (IC50) of 22.1 µM.
Consider `NC(=O)C[C@H](NC(=O)c1cc2ccccc2cc1NC(=O)Nc1ccccc1Cl)C(=O)O` [Example 31, N-[3-({[(2-chlorophenyl)amino]carbonyl}amino)-2-naphthoyl]-L-asparagine], for which it took 11.4 µM to reach half-maximal inhibition (IC50).
Then `NC(=O)CC[C@H](NC(=O)c1cc2ccccc2cc1NC(=O)Nc1ccccc1Cl)C(=O)O` [Example 32, N-[3-({[(2-chlorophenyl)amino]carbonyl}amino)-2-naphthoyl]-L-glutamine], with 41 µM; and `Cc1cccc(Cl)c1NC(=O)Nc1cc2ccccc2cc1C(=O)N[C@@H](C)C(=O)O` [Example 33, N-[3-({[(2-chloro-6-methylphenyl)amino]carbonyl}amino)-2-naphthoyl]-L-alanine], with 0.52 µM.
Next, `Cc1cccc(Cl)c1NC(=O)Nc1cc2ccccc2cc1C(=O)N[C@@H](CO)C(=O)O` [Example 34, N-[3-({[(2-chloro-6-methylphenyl)amino]carbonyl}amino)-2-naphthoyl]-L-serine]: 0.64 µM.
Next, `Cc1cccc(Cl)c1NC(=O)Nc1cc2ccccc2cc1C(=O)N1CCC[C@H]1C(=O)O` [Example 35, 1-[3-({[(2-chloro-6-methylphenyl)amino]carbonyl}amino)-2-naphthoyl]-L-proline]: 0.58 µM.
Regarding `Cc1cccc(Cl)c1NC(=O)Nc1cc2ccccc2cc1C(=O)N[C@H](C(=O)O)C(C)C` [Example 36, N-[3-({[(2-chloro-6-methylphenyl)amino]carbonyl}amino)-2-naphthoyl]-L-valine], the IC50 was 1.71 µM.
As to `Cc1cccc(Cl)c1NC(=O)Nc1cc2ccccc2cc1C(=O)N[C@H](C(=O)O)[C@@H](C)O` [Example 37, N-[3-({[(2-chloro-6-methylphenyl)amino]carbonyl}amino)-2-naphthoyl]-L-threonine], the IC50 worked out at 0.43 µM.
`CC[C@H](C)[C@H](NC(=O)c1cc2ccccc2cc1NC(=O)Nc1c(C)cccc1Cl)C(=O)O` [Example 38, N-[3-({[(2-chloro-6-methylphenyl)amino]carbonyl}amino)-2-naphthoyl]-L-isoleucine]: the 50% inhibitory concentration (IC50) was 0.28 µM.
The molecule `Cc1cccc(Cl)c1NC(=O)Nc1cc2ccccc2cc1C(=O)N[C@@H](CC(C)C)C(=O)O` [Example 39, N-[3-({[(2-chloro-6-methylphenyl)amino]carbonyl}amino)-2-naphthoyl]-L-leucine] registered an IC50 of 0.6 µM.
Then `Cc1cccc(Cl)c1NC(=O)Nc1cc2ccccc2cc1C(=O)N[C@@H](CC(N)=O)C(=O)O` [Example 40, N-[3-({[(2-chloro-6-methylphenyl)amino]carbonyl}amino)-2-naphthoyl]-L-asparagine], with 0.42 µM; and `Cc1cccc(Cl)c1NC(=O)Nc1cc2ccccc2cc1C(=O)N[C@@H](CCC(N)=O)C(=O)O` [Example 41, N-[3-({[(2-chloro-6-methylphenyl)amino]carbonyl}amino)-2-naphthoyl]-L-glutamine], with 1.32 µM; and `Cc1ccccc1NC(=O)Nc1cc2ccccc2cc1C(=O)N[C@@H](CCC(=O)O)C(=O)O` [Example 42, N-[3-({[(2-methylphenyl)amino]carbonyl}amino)-2-naphthoyl]-L-glutamic acid], with 28.3 µM.
Then `CSCC[C@H](NC(=O)c1cc2ccccc2cc1NC(=O)Nc1ccccc1C)C(=O)O` [Example 43, N-[3-({[(2-methylphenyl)amino]carbonyl}amino)-2-naphthoyl]-L-methionine], with 18.9 µM; and `Cc1ccccc1NC(=O)Nc1cc2ccccc2cc1C(=O)N[C@@H](Cc1cnc[nH]1)C(=O)O` [Example 44, N-[3-({[(2-methylphenyl)amino]carbonyl}amino)-2-naphthoyl]-L-histidine trifluoroacetate], with 5.18 µM.
Then `Cc1ccccc1NC(=O)Nc1cc2ccccc2cc1C(=O)N[C@@H](Cc1ccccc1)C(=O)O` [Example 45, N-[3-({[(2-methylphenyl)amino]carbonyl}amino)-2-naphthoyl]-L-phenylalanine], with 16.9 µM; and `Cc1ccccc1NC(=O)Nc1cc2ccccc2cc1C(=O)N[C@@H](Cc1c[nH]c2ccccc12)C(=O)O` [Example 46, N-[3-({[(2-methylphenyl)amino]carbonyl}amino)-2-naphthoyl]-L-tryptophan], with 3.73 µM; and `Cc1cccc(C)c1NC(=O)Nc1cc2ccccc2cc1C(=O)N[C@@H](CCCCN)C(=O)O` [Example 47, N-[3-({[(2,6-dimethylphenyl)amino]carbonyl}amino)-2-naphthoyl]-L-lysine trifluoroacetate], with 8.06 µM.
The molecule `Cc1cccc(C)c1NC(=O)Nc1cc2ccccc2cc1C(=O)N[C@@H](CCC(=O)O)C(=O)O` [Example 48, N-[3-({[(2,6-dimethylphenyl)amino]carbonyl}amino)-2-naphthoyl]-L-glutamic acid] displayed a concentration for half-maximal inhibition (IC50) of 1.73 µM.
`CSCC[C@H](NC(=O)c1cc2ccccc2cc1NC(=O)Nc1c(C)cccc1C)C(=O)O` [Example 49, N-[3-({[(2,6-dimethylphenyl)amino]carbonyl}amino)-2-naphthoyl]-L-methionine] had a half-maximal inhibitory concentration (IC50) of 1.67 µM.
Next, `Cc1cccc(C)c1NC(=O)Nc1cc2ccccc2cc1C(=O)N[C@@H](Cc1cnc[nH]1)C(=O)O` [Example 50, N-[3-({[(2,6-dimethylphenyl)amino]carbonyl}amino)-2-naphthoyl]-L-histidine trifluoroacetate]: 2.3 µM.
Next, `Cc1cccc(C)c1NC(=O)Nc1cc2ccccc2cc1C(=O)N[C@@H](Cc1ccccc1)C(=O)O` [Example 51, N-[3-({[(2,6-dimethylphenyl)amino]carbonyl}amino)-2-naphthoyl]-L-phenylalanine]: 0.68 µM; `Cc1cccc(C)c1NC(=O)Nc1cc2ccccc2cc1C(=O)N[C@@H](CCCNC(=N)N)C(=O)O` [Example 52, N-[3-({[(2,6-dimethylphenyl)amino]carbonyl}amino)-2-naphthoyl]-L-arginine]: 4.64 µM; `Cc1cccc(C)c1NC(=O)Nc1cc2ccccc2cc1C(=O)N[C@@H](Cc1ccc(O)cc1)C(=O)O` [Example 53, N-[3-({[(2,6-dimethylphenyl)amino]carbonyl}amino)-2-naphthoyl]-L-tyrosine]: 0.36 µM.
Then `Cc1cccc(C)c1NC(=O)Nc1cc2ccccc2cc1C(=O)N[C@@H](Cc1c[nH]c2ccccc12)C(=O)O` [Example 54, N-[3-({[(2,6-dimethylphenyl)amino]carbonyl}amino)-2-naphthoyl]-L-tryptophan trifluoroacetate], with 0.51 µM; and `O=C(O)CC[C@H](NC(=O)c1cc2ccccc2cc1NC(=O)Nc1ccccc1Cl)C(=O)O` [Example 55, N-[3-({[(2-chlorophenyl)amino]carbonyl}amino)-2-naphthoyl]-L-glutamic acid], with 10.4 µM.
Take `O=C(Nc1ccccc1Cl)Nc1cc2ccccc2cc1C(=O)N[C@@H](Cc1cnc[nH]1)C(=O)O` [Example 56, N-[3-({[(2-chlorophenyl)amino]carbonyl}amino)-2-naphthoyl]-L-histidine trifluoroacetate]: the IC50 amounted to 3.08 µM.
Then `O=C(Nc1ccccc1Cl)Nc1cc2ccccc2cc1C(=O)N[C@@H](Cc1ccccc1)C(=O)O` [Example 57, N-[3-({[(2-chlorophenyl)amino]carbonyl}amino)-2-naphthoyl]-L-phenylalanine], with 5.21 µM; and `O=C(Nc1ccccc1Cl)Nc1cc2ccccc2cc1C(=O)N[C@@H](Cc1c[nH]c2ccccc12)C(=O)O` [Example 58, N-[3-({[(2-chlorophenyl)amino]carbonyl}amino)-2-naphthoyl]-L-tryptophan trifluoroacetate], with 4.7 µM.
